Test results published in patent publication US6451330B1, “High skin friction cosmetic creams with retinoids” (Unilever Home & Personal Care, USA, division of Conopco, …, priority 2000, dated 2002).

Assay: Retinoid solubility in oil
Format: physicochemical
Protocol: Retinoid solubility in oil is determined by the following procedure. A known weight of pure retinoid in excess of the expected solubility limit in the oil is added in an oil and methanol is added to the mixture to dissolve all retinoid crystals. Nitrogen sparging is used to ensure all methanol has evaporated from the oil. Retinoid is allowed to recrystallize overnight. The sample is filtered through a 0.45 micron filter. Known dilutions of the filtrate in isopropanol are measured by UV spectroscopy at an appropriate wavelength (325 nm for retinol) and the concentration of retinoid determined against calibration standards of retinoid in isopropanol.

## CC1=C(/C=C/C(C)=C/C=C/C(C)=C/CO)C(C)(C)CCC1 [retinol]
Retinol crystals in C12-15 Alkyl benzoate
  SOLUBILITY, WT %: 85 WT %
Retinol crystals in Cetiol OE
  SOLUBILITY, WT %: 45 WT %
Retinol crystals in Cyclomethicone
  SOLUBILITY, WT %: 2.7 WT %
Retinol crystals in Dimethicone
  SOLUBILITY, WT %: 0.49 WT %
Retinol crystals in Isostearyl palmitate
  SOLUBILITY, WT %: 44 WT %
Retinol crystals in Mineral oil
  SOLUBILITY, WT %: 34.2 WT %
Retinol crystals in Triolein/Squalene (6:1)
  SOLUBILITY, WT %: 56.4 WT %
